In patent US7662810B2, “2-arylmethylazetidine carbapenem derivatives and preparation thereof” (Korea Research Institute of Chemical Technology, priority 2004, dated 2010):
≈ marks a conversion by molar mass, not a printed value.

Key:
[1] = target: T1, Dihydropeptidase-1 (DHP-1) (Sus scrofa, UniProt P22412)
T1 sequence (P22412 17-384): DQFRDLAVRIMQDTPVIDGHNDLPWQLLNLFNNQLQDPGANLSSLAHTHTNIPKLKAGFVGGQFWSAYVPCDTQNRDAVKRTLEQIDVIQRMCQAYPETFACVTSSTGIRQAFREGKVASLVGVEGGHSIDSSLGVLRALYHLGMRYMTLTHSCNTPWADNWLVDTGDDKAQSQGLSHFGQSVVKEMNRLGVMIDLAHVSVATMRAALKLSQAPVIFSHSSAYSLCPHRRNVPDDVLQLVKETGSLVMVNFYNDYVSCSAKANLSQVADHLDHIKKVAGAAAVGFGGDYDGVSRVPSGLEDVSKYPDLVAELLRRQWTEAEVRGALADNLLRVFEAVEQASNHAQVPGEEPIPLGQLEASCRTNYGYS
Experimental: The rate of degradation of the inventive compounds by the action of DHP-1 enzyme extracted from hog kidney was determined as follow.
0.2 unit of the enzyme was allowed to react with the above solution at 30° C., and the absorbance at 299 nm of the remaining medicament was measured to determine the degradation rate. The absorbance was measured at 0, 0.5, 1, 2 and 4 hour points, and T1/2, the time when the concentration of the medicament become the half, was obtained by regression analysis.

[2] = system: Staphylococcus aureus 256E; test: Measurement of Minimum Inhibitory Concentration (MIC), MRSA; type: cell-based; settings: Staphylococcus aureus
Experimental: (§1) The antibacterial activities of the compounds of the present invention prepared in the above Examples against Gram-positive and Gram-negative bacteria, MRSA and QRS were tested as follows.
(§2) Respective bacterial strains were inoculated into 3 ml of Fleisch extract broth (beef extract 1%, peptone 1%, NaCl 0.3%, Na2HPO4.12H2O 0.2%, pH 7.4-7.5. 10% horse serum was supplemented for Streptococcus pyogenes and S. facium) and cultured on a shaking incubator at 37° C. for 18 hours. About 10^4 CFU/spot of the cultured bacterial strains were inoculated onto Müller-Hinton agar plates containing serial double dilutions (final concentration of 0.002 to 100 μg/ml) of a test compound employing an automatic inoculator (Dynatech, USA), and incubated at 37° C. for 18 hours. When the incubation was completed, the minimum inhibitory concentration was determined. Meropenem (Yuhan corporation, Korea) and vancomycin (Cj Inco., Korea) were used as standard antibiotics, respectively.

[3] = system: Staphylococcus aureus 692E; test: as above; type: cell-based; settings: Staphylococcus aureus
Experimental: as §1, §2

[4] = system: Staphylococcus aureus 693E; test: as above; type: cell-based; settings: Staphylococcus aureus
Experimental: as §1, §2

[5] = system: Staphylococcus aureus 208E; test: as above; type: cell-based; settings: Staphylococcus aureus
Experimental: as §1, §2

[6] = system: Staphylococcus aureus 690E; test: as above; type: cell-based; settings: Staphylococcus aureus
Experimental: as §1, §2

[7] = system: Staphylococcus aureus 694E; test: as above; type: cell-based; settings: Staphylococcus aureus
Experimental: as §1, §2

[8] = system: Staphylococcus aureus 697E; test: as above; type: cell-based; settings: Staphylococcus aureus
Experimental: as §1, §2

[9] = system: Staphylococcus aureus 695E; test: as above; type: cell-based; settings: Staphylococcus aureus
Experimental: as §1, §2

[10] = system: Staphylococcus aureus 121E; test: as above; type: cell-based; settings: Staphylococcus aureus
Experimental: as §1, §2

[11] = system: Staphylococcus aureus 88E; test: as above; type: cell-based; settings: Staphylococcus aureus
Experimental: as §1, §2

[12] = system: Salmonella typhimurium 179; test: Measurement of Minimum Inhibitory Concentration (MIC); type: cell-based; settings: Salmonella enterica, TYPHIMURIUM
Experimental: as §1, §2

[13] = system: Staphylococcus pyogenes 77A; test: as above; type: cell-based; settings: Staphylococcus aureus, 77A
Experimental: as §1, §2

[14] = system: Enterobacter cloacae P 99; test: as above; type: cell-based
Experimental: as §1, §2

Escherichia coli 1507 E = test: as above; type: cell-based
Experimental: as §1, §2

[15] = system: Staphylococcus aureus 285; test: as above; type: cell-based
Experimental: as §1, §2

Escherichia coli 078 = test: as above; type: cell-based
Experimental: as §1, §2

Escherichia coli DC 0 = test: as above; type: cell-based
Experimental: as §1, §2

[16] = system: Klebsiella oxytoca 1082 E; test: as above; type: cell-based
Experimental: as §1, §2

[17] = system: Staphylococcus aureus 503; test: as above; type: cell-based
Experimental: as §1, §2

Escherichia coli TEM = test: as above; type: cell-based; settings: Escherichia coli
Experimental: as §1, §2

[18] = system: Staphylococcus faecium MD 8b; test: as above; type: cell-based; settings: Staphylococcus, MD8B
Experimental: as §1, §2

[19] = system: Staphylococcus pyogenes 308A; test: as above; type: cell-based; settings: Staphylococcus aureus, 308A
Experimental: as §1, §2

[20] = system: Klebsiella aerogenes 1522 E; test: as above; type: cell-based
Experimental: as §1, §2

[21] = system: Enterobacter cloacae 1321 E; test: as above; type: cell-based
Experimental: as §1, §2

Escherichia coli DC 2 = test: as above; type: cell-based
Experimental: as §1, §2

[22] = system: Staphylococcus epidermidis 178; test: Measurement of Minimum Inhibitory Concentration (MIC), QRS; type: cell-based; settings: Staphylococcus epidermidis, 178
Experimental: as §1, §2

[23] = system: Staphylococcus epidermidis 291; test: as above; type: cell-based; settings: Staphylococcus epidermidis, 291
Experimental: as §1, §2

[24] = system: Staphylococcus aureus 293; test: as above; type: cell-based; settings: Staphylococcus aureus, 293
Experimental: as §1, §2

[25] = system: Staphylococcus aureus 179; test: as above; type: cell-based; settings: Staphylococcus aureus, 179
Experimental: as §1, §2

[26] = system: Staphylococcus aureus 241; test: as above; type: cell-based; settings: Staphylococcus aureus, 241
Experimental: as §1, §2

SMILES: COc1cccc(CN2CC(SC3=C(C(=O)[O-])N4C(=O)[C@H]([C@@H](C)O)[C@H]4[C@H]3C)C2)c1.[K+] [Exam. 15, Potassium(1R,5S,6S)-2-[1-(3-methoxybenzyl)-azetidine-3-yl-thio]-6-[(1R)-1-hydroxylethyl]-1-methylcarbapen-2-em-3-carboxylate]
- Relative T1/2 [1]: 1.54
- T1/2 (time when the concentration of the medicament become the half) [1]: 28.16

SMILES: CN[C@H](CC(C)C)C(=O)N[C@H]1C(=O)N[C@@H](CC(N)=O)C(=O)N[C@H]2C(=O)N[C@H]3C(=O)N[C@H](C(=O)N[C@H](C(=O)O)c4cc(O)cc(O)c4-c4cc3ccc4O)[C@H](O)c3ccc(c(Cl)c3)Oc3cc2cc(c3O[C@@H]2O[C@H](CO)[C@@H](O)[C@H](O)[C@H]2O[C@H]2C[C@](C)(N)[C@H](O)[C@H](C)O2)Oc2ccc(cc2Cl)[C@H]1O [Vancomycin, vancomycin, reference compound]
- MIC [2]: 0.781 µg/mL (≈ 0.539 µM)
- MIC [3]: 0.781 µg/mL (≈ 0.539 µM)
- MIC [4]: 1.56 µg/mL (≈ 1.08 µM)
- MIC [5]: 0.781 µg/mL (≈ 0.539 µM)
- MIC [6]: 0.391 µg/mL (≈ 0.27 µM)
- MIC [7]: 1.56 µg/mL (≈ 1.08 µM)
- MIC [8]: 0.781 µg/mL (≈ 0.539 µM)
- MIC [9]: 1.56 µg/mL (≈ 1.08 µM)
- MIC [10]: 0.781 µg/mL (≈ 0.539 µM)
- MIC [11]: 0.781 µg/mL (≈ 0.539 µM)
- MIC [12]: 100 µg/mL (≈ 69 µM)
- MIC [13]: 0.391 µg/mL (≈ 0.27 µM)
- MIC [14]: 100 µg/mL (≈ 69 µM)
- MIC (Escherichia coli 1507 E): 100 µg/mL (≈ 69 µM)
- MIC [15]: 0.391 µg/mL (≈ 0.27 µM)
- MIC (Escherichia coli 078): 100 µg/mL (≈ 69 µM)
- MIC (Escherichia coli DC 0): 100 µg/mL (≈ 69 µM)
- MIC [16]: 100 µg/mL (≈ 69 µM)
- MIC [17]: 0.391 µg/mL (≈ 0.27 µM)
- MIC (Escherichia coli TEM): 100 µg/mL (≈ 69 µM)
- MIC [18]: 0.391 µg/mL (≈ 0.27 µM)
- MIC [19]: 0.781 µg/mL (≈ 0.539 µM)
- MIC [20]: 100 µg/mL (≈ 69 µM)
- MIC [21]: 100 µg/mL (≈ 69 µM)
- MIC (Escherichia coli DC 2): 50 µg/mL (≈ 34.5 µM)
- MIC [22]: 1.56 µg/mL (≈ 1.08 µM)
- MIC [23]: 1.56 µg/mL (≈ 1.08 µM)
- MIC [24]: 0.781 µg/mL (≈ 0.539 µM)
- MIC [25]: 0.781 µg/mL (≈ 0.539 µM)
- MIC [26]: 0.781 µg/mL (≈ 0.539 µM)

SMILES: Cc1ccc(CN2CC(SC3=C(C(=O)[O-])N4C(=O)[C@H]([C@@H](C)O)[C@H]4[C@H]3C)C2)cc1.[K+] [Exam. 23, Potassium(1R,5S,6S)-2-[1-(4-methylbenzyl)-azetidine-3-yl-thio]-6-[(1R)-1-hydroxylethyl]-1-methylcarbapen-2-em-3-carboxylate]
- Relative T1/2 [1]: 1.38
- T1/2 (time when the concentration of the medicament become the half) [1]: 25.24

SMILES: C[C@@H](O)[C@H]1C(=O)N2C(C(=O)[O-])=C(SC3CN(Cc4cccc(C(F)(F)F)c4)C3)[C@H](C)[C@H]12.[K+] [Exam. 20, Potassium(1R,5S,6S)-2-[1-(3-trifluoromethylbenzyl)-azetidine-3-yl-thio]-6-[(1R)-1-hydroxylethyl]-1-methylcarbapen-2-em-3-carboxylate]
- Relative T1/2 [1]: 0.88
- T1/2 (time when the concentration of the medicament become the half) [1]: 16.03

SMILES: C[C@H](c1ccccc1)N1CC(SC2=C(C(=O)[O-])N3C(=O)[C@H]([C@@H](C)O)[C@H]3[C@H]2C)C1.[K+] [Exam. 21, Potassium(1R,5S,6S)-2-{1-[(1R)-1-phenylethyl]-azetidine-3-yl-thio}-6-[(1R)-1-hydroxylethyl]-1-methylcarbapen-2-em-3-carboxylate]
- Relative T1/2 [1]: 1.88
- T1/2 (time when the concentration of the medicament become the half) [1]: 38.43
